Entries after “also recorded” stand apart in the source; their conditions may differ.
Tests used:
[1] = test system: tail lymphedema in SKH-1 mice; assay: Histology and histomorphometric quantitation of epidermal thickness (Example 4); type: in vivo, mouse; conditions: for histological changes in mice with lymphedema: hematoxylin/eosin
Experimental: Immediately after sacrifice, 0.5-g sections of tail were harvested for histological analysis and RNA extraction. Sections extended from a point 4 mm proximal to the surgical incision to 8 mm beyond it. The specimens were fixed overnight in 4% paraformaldehyde, embedded in paraffin, cut into 5-μm sections, stained with hematoxylin and eosin (Richard-Allan Scientific, Kalamazoo, Mich.), and examined by light microscopy.
Epidermal thickness was measured serially using digital images of histology slides stained with hematoxylin and eosin. Processing and analysis were performed using Adobe Photoshop CS4 and ImageJ (http://rsbweb.nih.gov/ij) as previously described with modifications (Sanders J E, et al. Comput Methods Programs Biomed. 1999; 59:167-180). Quantitative measurements were imported to Prism 5 software (GraphPad Software Inc., La Jolla, Calif.) for statistical analysis and graphing.

[2] = test system: TNF-α, MCP-1, VEGF-C, VEGF-D, VEGFR-3, Prox1, LYVE-1 expression; assay: Targeted gene expression analysis by quantitative real-time RT-PCR in tail skin; type: in vivo, mouse
Experimental: Primers and probes were from Assays-on-Demand (Applied Biosystems, Foster City, Calif.). cDNA was synthesized from 5 μg of total RNA with Taqman reverse-transcription reagents (Applied Biosystems) and amplified in triplicate at 50° C. for 2 minutes and 95° C. for 10 minutes, followed by 40 cycles of 95° C. for 15 seconds and 60° C. for 1 minute. Reactions without template and/or enzyme were used as negative controls. 18S ribosomal RNA served as an internal control. A standard curve derived from embryonic mouse RNA was plotted for each target gene by linear regression using SPSS software (v. 11.0, Applied Biosystems). RNA quantity was expressed relative to the corresponding 18S control. Fold differences were calculated by dividing the experimental results by the pooled normal results and were plotted on a log 10 scale.

[3] = test system: cytokine levels in tail skin; assay: Tissue cytokine assays (Luminex) in tail skin homogenates; type: in vivo, mouse
Experimental: Cytokine levels in tail skin were measured in normal controls and mice with untreated, NSAID-treated, and sTNF-R1-treated lymphedema (n=3 per group) sacrificed on postoperative day 7. The Luminex LabMap200 System was used to measure the levels of 42 cytokines from the supernatant of tissue homogenates. Multiplex cytokine kits were purchased from Panomics (Fremont, Calif.), and the assay was performed according to the manufacturer's recommendation with the following modifications: 25-50 μl of samples, standards, and controls were added in duplicate to 96-well filter plates pre-configured with a panel of anti-cytokine antibodies covalently linked to unique polystyrene beads. The plate was incubated overnight at 4° C. in the dark with shaking at 500 rpm, vacuum aspirated, and washed three times with 140 μl of wash buffer to remove unbound antigen. Biotinylated detection antibody solution (25 μl) was added to each well and incubated for 1 hour with shaking at 500 rpm at room temperature. The plate was incubated with 50 μl of streptavidin-phycoerythrin for 35 minutes and then with 120 μl of reading buffer for 3 minutes at room temperature with shaking. After laser excitation, digital images of the bead array were captured with a CCD camera and analyzed on a computer workstation with BeadView software.

[4] = Mass spectrometry of ketoprofen in tissue following topical administration; type: in vivo, mouse; conditions: topical preparation delivered daily to mice; mass spectrometry of biopsy
patients with lymphedema [5] = assay: Human study: volume of fluid lost from affected limb after 90 days ketoprofen; type: in vivo; conditions: 75 mg orally twice or three times per day for 90 days
Experimental: FIG. 23. […] For the purposes of comparing bilateral results to unilateral results, volume lost in bilateral lymphedema was calculated by determining the total volume lost and dividing by 2.
Biopsies were taken pre- and post-treatment, and clinical responses were reassessed monthly. 44 participants were enrolled (FIG. 22), 38 of which had completed the study at the time the data was collected. Average age of the patient was 57 years+/−14 years (24-85 years of age). The average length of time that the patient had had lymphedema was 10+/−10 years (0.5-40 years). Lymphedema was due to the following: breast cancer (12 patients (27.3%)); cervical cancer (6 patients (13.6%)); uterine cancer (2 patients (4.5%)); ovarian cancer (2 patients (4.5%)); penile cancer (1 patient (2.3%)); Hodgkin's lymphoma (2 patients (4.5%)); trauma (5 patients (11.4%)); infection (3 patients (6.8%)); venous insufficiency (3 patients (6.8%)); May-Thurner syndrome (2 patients (4.5%)); primary lymphedema ([…]); other (2 patients (4.5%)).

patients with lymphedema [6] = assay: Human study: histology of cutaneous biopsies (Hematoxylin and Eosin, Sirius Red); type: in vivo; conditions: 90 days / 3 months after start of treatment
From the text: FIG. 24. Tissue architecture before and after ketoprofen treatment. (A) Cutaneous biopsies stained with Hematoxylin and Eosin. (B) Cutaneous biopsies stained with Hoechst. “Normal”: unaffected contralateral limb. “Lymphedema, Pre-Rx”: affected tissue at the start of treatment. “Lymphedema post-Rx”: affected tissue 90 days following treatment.
FIG. 25. […] Fibrotic response (thickening tissue, collagen deposition in dermis and subdermis) is quantified by measuring the mean pixel intensity of Sirius Red uptake. […] In lymphedemous tissue (LY), an increase in fibrotic tissue is observed. Three months after the start of treatment (Rx/NL), the tissue has returned to a healthy state. Y axis is the ratio of paired samples. “NL/NL”: fibrosis in unaffected tissue, normalized to the pixel intensity of Sirius Red uptake in the unaffected tissue. “LY/NL”: fibrosis at the start of treatment, normalized to the pixel intensity of Sirius Red uptake in the unaffected tissue. “Rx/NL”: fibrosis after 3 months treatment, normalized to the pixel intensity of Sirius Red uptake in the unaffected tissue.
Biopsies were taken pre- and post-treatment, and clinical responses were reassessed monthly. 44 participants were enrolled (FIG. 22), 38 of which had completed the study at the time the data was collected. Average age of the patient was 57 years+/−14 years (24-85 years of age). […]

[7] = test system: CD11B+ cells and CD4+ helper T cells in affected tissue; assay: Human study: immunohistochemistry of CD11b+ and CD4+ cell infiltrates in biopsies; type: in vivo; conditions: 4th clinical follow up visit
Experimental: FIG. 26. […] 3 samples from each patient were analyzed by paired analysis: NL (biopsy from an unaffected limb), 1-LY (biopsy from affected limb), and 4-LY (4th clinical follow up visit).
FIG. 29. Quantification of CD4+ helper T cell involvement in lymphedema pathology. 3 samples from each patient were analyzed by paired analysis: NL (biopsy from an unaffected limb), 1-LY (biopsy from affected limb), and 4-LY (4th clinical follow up visit).
To determine the cellular basis for the lymphedema pathology, lymphedemous tissue was analyzed for the aberrant presence of immune cells.

CD30 and IgE levels = assay: Human study: serum analysis of CD30 and IgE; type: in vivo; conditions: pre to post treatment
patients with lymphedema [8] = assay: Human study: participant outcomes following the clinical trial; type: in vivo
[9] = test system: gene expression in lymphedemous tissue; assay: Paired whole genome transcriptional profiling of human lymphedema (Agilent human array); type: in vivo; conditions: of the 8431 genes altered in lymphedema versus normal tissue
Experimental: Paired whole genome transcriptional profiling was performed using the Agilent human array (n=30). Expression profiles of untreated and post-treated lymphedemous tissue were compared to the normal cutaneous RNA from the same subject.

Log Kow = type: physicochemical
[10] = day 11, lymphedema mice, listed as NSAID
[11] = lymphedema mice, listed as NSAID
[12] = postoperative day 7, listed as NSAID

SMILES: CC(C(=O)O)c1cccc(C(=O)c2ccccc2)c1 (stereo not shown) [ketoprofen]
- epidermal thickness (ET) compared to untreated LY mice ([1]; FIG. 14B): significantly reduced
- epidermal thickness decreased, compared to untreated lymphedema mice ([1]; day 11): 47.0±5.1%
- histological changes in mice with lymphedema ([1]; day 11): substantial normalization from the untreated histology
- histological changes in mice with lymphedema ([1]; day 11, listed as NSAID): normalization of histological changes; also recorded: normalizes these pathological findings
- Prox1 expression ([2]; day 11, lymphedema mice): significant, parallel up-regulation
- TNF-α expression (mRNA) ([2]; day 11, lymphedema mice): further increased
- MCP-1 expression (mRNA) [2, 10]: significantly induced
- Prox1 expression [2, 10]: significantly induced
- TNF-α expression (mRNA) [2, 10]: significantly induced
- VEGF-C expression (mRNA) ([2]; lymphedema mice): significant upregulation
- VEGFR-3 expression ([2]; lymphedema mice): significantly upregulated
- VEGF-C expression (mRNA) [2, 11]: significant, parallel up-regulation; also recorded: significantly induced
- VEGFR-3 expression [2, 11]: significant, parallel up-regulation; also recorded: significantly induced
- VEGF-D expression (mRNA) ([2]; lymphedema mice, vs vehicle): significant upregulation
- MCP-1 tissue levels (protein) ([3]; postoperative day 7): further increased
- MCP-3 tissue levels (protein) [3, 12]: significantly reduced; also recorded: inhibited
- macrophage inflammatory protein 1a (MIP1a) tissue levels [3, 12]: inhibited
- TNF-α tissue levels (protein) ([3]; postoperative day 7, median fluorescence intensity): significantly higher
- permeation of topically administered drug into skin layers [4]: permeates into the deepest layers of the skin
- fluid lost from the affected limb, unilateral lymphedema (average) (patients with lymphedema [5]): 354 milliliters
- fluid lost from one affected limb, bilateral lymphedema (average) (patients with lymphedema [5]; total volume lost divided by 2): 533 milliliters
- tissue architecture, protein deposition and fibrosis in cutaneous biopsies (patients with lymphedema [6]): reversal of disease-associated protein deposition and fibrosis; also recorded: restoration in the tissue architecture; also recorded: abrogates the inflammation that leads to a fibrotic response in the skin
- CD4+ cells in affected tissue after treatment [7]: absent
- CD11B+ cells in affected tissue after treatment [7]: absent; also recorded: returns CD11b counts to normal
- serum CD30 amounts, average decrease after treatment (CD30 and IgE levels): 13%
- participants who describe the affected limb as normal in size (patients with lymphedema [8]): 2%
- participants who described relief from pain (patients with lymphedema [8]): 7%
- participants who discontinued chronic use of compression garments (patients with lymphedema [8]): 9%
- participants who elected to continue off-label treatment (patients with lymphedema [8]): 100%
- participants who noted that the affected limb feels lighter (patients with lymphedema [8]): 7%
- participants who noted that the compression garment is loose (patients with lymphedema [8]): 2%
- fraction of altered genes displaying directional normalization after treatment [9]: 72%
- number of genes displaying directional normalization after treatment [9]: 6050
- Log Kow (Log Kow): 3.00

From patent publication US8965708B2, “Method for the treatment of acquired lymphedema” (The Board of Trustees of the Leland Stanford Junior …, priority 2006, dated 2015)
